Reference: US20230277504A1, “COMPOSITIONS AND METHODS COMPRISING CELECOXIB OR RELATED COMPOUNDS AND DEXTROMETHORPHAN” (ANTECIP BIOVENTURES II LLC, priority 2012, published 2023)
Values joined by “and” are separate entries in the source; they are usually repeats but may differ in a detail not shown here. Equal values may be shown once. Read-outs that look alike come from different tables or passages of the source.

Legend:
[1] = target: T1, dextromethorphan metabolism (demethylation; CYP2D6) in human liver microsomes (Homo sapiens, UniProt P10635); test: Inhibition of dextromethorphan metabolism in human liver microsomes; format: in vitro ADME
T1 construct: in the presence of dextromethorphan (2.5 μM) and human liver microsomes (0.5 mg/mL) at 37° C; from tissue; host or cells: human liver microsomes
T1 sequence (P10635 whole entry): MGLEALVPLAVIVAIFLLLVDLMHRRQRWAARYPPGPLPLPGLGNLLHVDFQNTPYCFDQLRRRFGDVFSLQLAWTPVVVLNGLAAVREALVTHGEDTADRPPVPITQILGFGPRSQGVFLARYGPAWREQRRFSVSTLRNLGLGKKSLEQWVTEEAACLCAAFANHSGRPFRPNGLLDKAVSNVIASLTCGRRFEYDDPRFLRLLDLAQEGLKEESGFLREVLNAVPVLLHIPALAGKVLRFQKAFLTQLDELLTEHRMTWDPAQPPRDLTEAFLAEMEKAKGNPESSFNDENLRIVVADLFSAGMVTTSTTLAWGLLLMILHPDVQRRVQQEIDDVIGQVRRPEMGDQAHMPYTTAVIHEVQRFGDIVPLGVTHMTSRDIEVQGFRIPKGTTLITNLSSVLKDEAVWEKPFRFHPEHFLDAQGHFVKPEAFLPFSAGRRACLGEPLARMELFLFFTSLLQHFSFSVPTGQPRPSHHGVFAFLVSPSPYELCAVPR
Experimental: Inhibition of dextromethorphan metabolism was examined using human liver microsomes. […] In addition, the assay contained NADPH (2 mM), MgCl2 (3 mM), and potassium phosphate buffer (50 mM) at pH 7.4. The assay was initiated by adding the NADPH, and incubation was terminated after 10 minutes by addition of acetonitrile. The samples were centrifuged, and the metabolism of dextromethorphan was analyzed by LC/MS/MS. […] The same assay was carried out on a number of NSAIDs.

[2] = extensive metabolizers of dextromethorphan; 'believed to be'; cited from earlier work
pain = conditions: cited from earlier work

## CC(C(=O)O)c1ccc(-c2ccccc2)c(F)c1 (stereo not shown) [Flurbiprofen]
[1]
  IC50: > 320 µM

## COc1ccc2cc(CC(=O)O)ccc2c1 [6-methoxy-2-naphthyl acetic acid]
[1]; human liver microsomes 0.5 mg/mL, dextromethorphan 2.5 μM, NADPH 2 mM, 37° C., pH 7.4, 10 minutes, LC/MS/MS, read-out: IC50 (inhibition of dextromethorphan metabolism)
  IC50: > 1760 µM

## Cc1onc(-c2ccccc2)c1-c1ccc(S(N)(=O)=O)cc1 [Valdecoxib]
[1]
  IC50: 15.2 µM

## CS(=O)(=O)c1ccc(C2=C(c3ccccc3)C(=O)OC2)cc1 [Rofecoxib]
[1]
  IC50: 44.5 µM

## Cc1ccc(-c2cc(C(F)(F)F)nn2-c2ccc(S(N)(=O)=O)cc2)cc1 [Celecoxib]
[1]
  IC50: 2.6 to 2.9 µM
  times as active at inhibiting the metabolism of dextromethorphan as the next best compound: about five
[1]; IC50 (inhibition of dextromethorphan metabolism), human liver microsomes 0.5 mg/mL, dextromethorphan 2.5 μM, NADPH 2 mM, 37° C., pH 7.4, 10 minutes, LC/MS/MS
  IC50: 2.6 µM and 2.9 µM
[1]; human, 10 min, pH 7.4
  times as active at inhibiting the metabolism of dextromethorphan as 6-methoxy-2-naphthyl acetic acid: more than 500 times

## CC1=C(CC(=O)O)c2cc(F)ccc2/C1=C\c1ccc([S+](C)[O-])cc1 (stereo not shown) [Sulindac]
[1]
  IC50: > 36 µM

## COc1ccc2c(c1)[C@]13CCCC[C@@H]1[C@H](C2)N(C)CC3 [dextromethorphan, Dextromethorphan]
[2]
  clearance: about 110 L/min
pain; double-blind human studies in chronic and neuropathic pain, review of Weinbroum et al.
  analgesic efficacy: ineffective for the most part
pain; patients with diabetic neuropathy and postherpetic neuralgia, Sang et al.
  pain reduction versus placebo: did not reduce pain significantly more than placebo
pain; patients with facial neuralgias, Gilron et al.
  analgesic efficacy: little or no analgesic efficacy
